Experimental data from publication PMC1976805, “Preclinical pharmacokinetics of benznidazole” (British Journal of Cancer, 1984).
Where two headings read alike, the source gives them in different places.

Key:
plasma proteins [1] = experiment: Binding to plasma proteins in vitro, mouse plasma (ultrafiltrate); assay type: in vitro ADME
Source text: (§1) Br. J. Cancer (1984), 50, 291-303 Preclinical pharmacokinetics of benznidazole P. Workman', R.A.S. White2, M.I. Walton', L.N. Owen2* & P.R. Twentyman' 1MRC Clinical Oncology and Radiotherapeutics Unit, MRC Centre, Hills Road, Cambridge CB2 2QH, and 2Department of Clinical Veterinary Medicine, University of Cambridge, Madingley Road, Cambridge CB3 OES, UK. […] We have investigated the detailed pharmacokinetics of benznidazole in mice, dogs and sheep to provide a data base for the estimation of doses required for chemosensitization in man. Pharmacokinetic behaviour was linear except at high doses in mice. Absorption was fairly rapid and bioavailability was complete following both i.p. administration in mice and oral administration in dogs. Elimination t4 values were longer than for MISO, being 90 min in mice, 4-5 h in sheep and 9-11 h in dogs. At doses giving linear kinetics, peak whole plasma concentrations per administered mgkg-1 were 0.75 jigml-1 for the i.p. route in mice and 1.8jugmlP' for the oral route in dogs. Though between 39 and 59% of plasma benznidazole was bound to protein, tissue penetration was generally good. Tissue/whole plasma ratios ranged from 59-99% for transplantable mouse tumours and from 14-70% for spontaneous dog neoplasms. Nervous tissue penetration was similar to that in tumours: brain/whole plasma ratios averaged between 61 and 76% in mice and 42% in dogs, while peripheral nerve/whole plasma ratios in dogs averaged 74%. […] Although benznidazole is used quite widely in South America to treat patients with the trypanosomal infection Chagas' disease or with mucotaneous Leishmaniasis (Barclay et al., 1978; Cerisola et al., 1978; Coura et al., 1978; Fava et al., 1978), apart from our preliminary studies (White et al., 1982) the only published data on its pharmaco- kinetics are for human plasma concentrations measured by polarography (Raaflub & Ziegler, 1979; Raaflub, 1980). Here we describe the pharmacokinetics of benznidazole in the mouse, sheep and dog, as determined by high-performance liquid chromatography (HPLC). […]

human plasma = conditions: cited from earlier work
plasma proteins [2] = experiment: Plasma protein binding, summary over species; assay type: in vivo; conditions: mouse, sheep, dog, range over species studied
Source text: as §1, with “dogs.” for “dogs. Elimination t4 values were longer than for MISO, being 90 min in mice, 4-5 h in sheep and 9-11 h in dogs. At doses giving linear kinetics, peak whole plasma concentrations per administered mgkg-1 were 0.75 jigml-1 for the i.p. route in mice and 1.8jugmlP' for the oral route in dogs. Though between 39 and 59% of plasma benznidazole was bound to protein, tissue penetration was generally good. Tissue/whole plasma ratios ranged from 59-99% for transplantable mouse tumours and from 14-70% for spontaneous dog neoplasms. Nervous tissue penetration was similar to that in tumours: brain/whole plasma ratios averaged between 61 and 76% in mice and 42% in dogs, while peripheral nerve/whole plasma ratios in dogs averaged 74%.”

[3] = 24 h urinary recovery of unchanged drug in mice; assay type: in vivo, mouse; conditions: for dose excreted: male, BALB/c, mouse, urine, ip, 650 mg kg-1, BALB/c mice, 650 mg kg-1 i.p.
Source text: as §1

[4] = Penetration into brain and peripheral nerve in dogs; assay type: in vivo, dog; conditions: 25 mg kg-1 oral; for Kp: collie crossbred, dog, po, 25 mg kg-1, two crossbred dogs, 1-4 h
Source text: Br. J. Cancer (1984), 50, 291-303 Preclinical pharmacokinetics of benznidazole P. Workman', R.A.S. White2, M.I. Walton', L.N. Owen2* & P.R. Twentyman' 1MRC Clinical Oncology and Radiotherapeutics Unit, MRC Centre, Hills Road, Cambridge CB2 2QH, and 2Department of Clinical Veterinary Medicine, University of Cambridge, Madingley Road, Cambridge CB3 OES, UK. […] We have investigated the detailed pharmacokinetics of benznidazole in mice, dogs and sheep to provide a data base for the estimation of doses required for chemosensitization in man. Pharmacokinetic behaviour was linear except at high doses in mice. Absorption was fairly rapid and bioavailability was complete following both i.p. administration in mice and oral administration in dogs. Elimination t4 values were longer than for MISO, being 90 min in mice, 4-5 h in sheep and 9-11 h in dogs. At doses giving linear kinetics, peak whole plasma concentrations per administered mgkg-1 were 0.75 jigml-1 for the i.p. route in mice and 1.8jugmlP' for the oral route in dogs. Though between 39 and 59% of plasma benznidazole was bound to protein, tissue penetration was generally good. Tissue/whole plasma ratios ranged from 59-99% for transplantable mouse tumours and from 14-70% for spontaneous dog neoplasms. Nervous tissue penetration was similar to that in tumours: brain/whole plasma ratios averaged between 61 and 76% in mice and 42% in dogs, while peripheral nerve/whole plasma ratios in dogs averaged 74%. Mean liver/whole plasma ratios were 42% and 71% in BALB/c and C3H/He mouse strains respectively. Only -5% of the administered dose was excreted unchanged in the urine, indicating the likelihood of extensive metabolism. […] Enhancement of CCNU response is likely to require circulating benznidazole concentrations of 10-30 pgml-1 and we predict that these will be obtained with oral doses of 6-20 mgkg- 1 in man. […] This enhancement, or chemosensitization, is usually greater than that seen in dose-limiting normal tissues, resulting in an improved therapeutic index. Because of the relatively high doses of MISO usually required for chemosensitization in mice (see above refs), and also because of its neurotoxicity in man (Dische et al., 1977), we have been interested in finding an improved chemosensitizer. […] The lipophilic ana- logue benznidazole (N-benzyl-(2-nitroimidazolyl) acetamide, Ro 07-1051; Radanil; Roche), the structure of which is shown in Figure 1, was selected for detailed study because of its ability to *Present address: Animal Health Trust, Small Animals Centre, Lanwades Park, Kennett, Newmarket, Suffolk CB8 7PN, UK. Correspondence: P. Workman. […] These findings have been confirmed independently by Siemann et al. (1983). Although benznidazole is used quite widely in South America to treat patients with the trypanosomal infection Chagas' disease or with mucotaneous Leishmaniasis (Barclay et al., 1978; Cerisola et al., 1978; Coura et al., 1978; Fava et al., 1978), apart from our preliminary studies (White et al., 1982) the only published data on its pharmaco- kinetics are for human plasma concentrations measured by polarography (Raaflub & Ziegler, 1979; Raaflub, 1980). Here we describe the pharmacokinetics of benznidazole in the mouse, sheep and dog, as determined by high-performance liquid chromatography (HPLC). […] The Macmillan Press Ltd., 1984 292 P. WORKMAN et al. particularly on plasma and tumour concentrations, have been used as a basis for the estimation of the benznidazole doses required in a Phase I trial of benznidazole plus CCNU, at present ongoing in our Unit. Materials and methods Animals and tumours Adult inbred male BALB/c mice were obtained from OLAC (Southern) Ltd. (Bicester, UK) and adult inbred C3H/He mice of both sexes from OLAC and our own breeding colony. Mice were housed in plastic cages on sawdust bedding made from soft white woods, and allowed laboratory chow and water ad lib. They were used at 20-35 g body wt.

- extent of binding to plasma proteins in vitro (plasma proteins [1]; BALB/c mice): 38%
- extent of binding to plasma proteins in vitro (plasma proteins [1]; C3H/He mice): 39%
- binding to plasma proteins (plasma proteins [1]; mouse, discussion summary): 39%
- fraction unbound (plasma proteins [2]): 0.41 to 0.61
- dose excreted ([3]; experiment 1): 4.8%
- dose excreted ([3]; experiment 2): 5.2%
- administered dose excreted unchanged in the urine ([3]; summary value): approximately 5%
- Kp ([4]; brain, read-out: brain/whole plasma ratio, overall mean (s.e., n=8)): 0.42
- Kp ([4]; peripheral nerve, read-out: peripheral nerve/whole plasma ratio, mean (s.e., n=7)): 0.74
- brain concentration ([4]; dog G, 1 h): 1.1 µg/g
- peripheral nerve concentration ([4]; dog G, 1 h): 1.3 µg/g
- plasma concentration ([4]; dog G, 1 h): 3100 ng/mL
- brain concentration ([4]; dog G, 2 h): 1.5 µg/g
- peripheral nerve concentration ([4]; dog G, 2 h): 3.4 µg/g
- plasma concentration ([4]; dog G, 2 h): 3800 ng/mL
- brain concentration ([4]; dog G, 3 h): 2.1 µg/g
- plasma concentration ([4]; dog G, 3 h): 4300 ng/mL
- brain concentration ([4]; dog G, 4 h): 1.1 µg/g
- peripheral nerve concentration ([4]; dog G, 4 h): 4.0 µg/g
- plasma concentration ([4]; dog G, 4 h): 4100 ng/mL
- brain concentration ([4]; dog H, 1 h): 11.6 µg/g
- peripheral nerve concentration ([4]; dog H, 1 h): 14.0 µg/g
- plasma concentration ([4]; dog H, 1 h): 23100 ng/mL
- brain concentration ([4]; dog H, 2 h): 10.0 µg/g
- peripheral nerve concentration ([4]; dog H, 2 h): 15.5 µg/g
- plasma concentration ([4]; dog H, 2 h): 22200 ng/mL
SMILES: O=C(Cn1ccnc1[N+](=O)[O-])NCc1ccccc1 [benznidazole, N-benzyl-(2-nitroimidazolyl) acetamide]
- binding to plasma proteins (human plasma; ref Raaflub & Ziegler, 1979): 44%
- binding to plasma proteins (human plasma; ref Workman & Brown, 1981): 58%
